Active and inactive are the calls of the source.
Assays:
Cytochrome P450 3A4 = Cytochrome P450 3A4 (Homo sapiens, UniProt P08684);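 also: CYP3A4 tested as one member of a cytochrome P450 panel screen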
[1] = molecular target: T1, Short transient receptor potential channel 4 (Mus musculus, UniProt Q9QUQ5); test: calcium entry via TRPC4 opening agents – cell-based, HEK293 TRPC4/mu-opioid, Fluo-4 calcium, dose response (AID 434937); format: functional
T1 sequence (Q9QUQ5 whole entry): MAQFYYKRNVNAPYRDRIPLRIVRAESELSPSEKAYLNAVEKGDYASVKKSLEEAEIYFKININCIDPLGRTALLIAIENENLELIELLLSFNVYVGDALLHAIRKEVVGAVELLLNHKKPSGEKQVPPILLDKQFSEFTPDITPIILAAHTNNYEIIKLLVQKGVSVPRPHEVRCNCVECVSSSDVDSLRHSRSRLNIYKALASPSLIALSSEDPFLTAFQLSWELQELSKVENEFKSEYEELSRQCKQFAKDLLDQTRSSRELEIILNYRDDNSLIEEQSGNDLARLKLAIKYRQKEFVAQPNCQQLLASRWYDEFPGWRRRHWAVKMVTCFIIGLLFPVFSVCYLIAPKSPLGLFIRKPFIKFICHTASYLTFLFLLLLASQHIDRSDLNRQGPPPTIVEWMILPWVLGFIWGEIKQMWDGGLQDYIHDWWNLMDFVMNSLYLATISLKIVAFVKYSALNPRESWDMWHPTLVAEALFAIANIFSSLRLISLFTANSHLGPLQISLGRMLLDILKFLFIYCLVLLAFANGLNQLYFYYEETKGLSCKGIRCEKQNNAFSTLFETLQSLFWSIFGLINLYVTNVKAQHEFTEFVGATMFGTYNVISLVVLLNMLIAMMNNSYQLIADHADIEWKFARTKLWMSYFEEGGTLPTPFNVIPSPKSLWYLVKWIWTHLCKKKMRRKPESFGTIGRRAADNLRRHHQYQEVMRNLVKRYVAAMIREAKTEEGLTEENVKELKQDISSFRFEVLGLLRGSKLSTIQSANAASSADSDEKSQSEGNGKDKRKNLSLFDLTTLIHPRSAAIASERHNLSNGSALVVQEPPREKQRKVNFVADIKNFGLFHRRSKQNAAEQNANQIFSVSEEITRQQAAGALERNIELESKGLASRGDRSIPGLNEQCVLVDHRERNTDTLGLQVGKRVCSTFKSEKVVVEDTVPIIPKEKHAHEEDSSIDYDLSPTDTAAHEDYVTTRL

cells = format: functional
[2] = HepG2 cell cytotoxicity, dose response, cytotoxicity control for non-replicating M. tuberculosis project (AID 489018); format: functional; conditions: Mycobacterium tuberculosis
Streptokinase A = molecular target: T2, Streptokinase A (Streptococcus pyogenes serotype M1, UniProt P10520); test: viability-normalized secreted streptokinase activity reduction – plasminogen activation absorbance, OD405, dose response (AID 1914); format: functional, Streptococcus pyogenes M1 GAS;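 also: secreted streptokinase activity via plasminogen activation per viability signal from cell pellet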
T2 sequence (P10520 whole entry): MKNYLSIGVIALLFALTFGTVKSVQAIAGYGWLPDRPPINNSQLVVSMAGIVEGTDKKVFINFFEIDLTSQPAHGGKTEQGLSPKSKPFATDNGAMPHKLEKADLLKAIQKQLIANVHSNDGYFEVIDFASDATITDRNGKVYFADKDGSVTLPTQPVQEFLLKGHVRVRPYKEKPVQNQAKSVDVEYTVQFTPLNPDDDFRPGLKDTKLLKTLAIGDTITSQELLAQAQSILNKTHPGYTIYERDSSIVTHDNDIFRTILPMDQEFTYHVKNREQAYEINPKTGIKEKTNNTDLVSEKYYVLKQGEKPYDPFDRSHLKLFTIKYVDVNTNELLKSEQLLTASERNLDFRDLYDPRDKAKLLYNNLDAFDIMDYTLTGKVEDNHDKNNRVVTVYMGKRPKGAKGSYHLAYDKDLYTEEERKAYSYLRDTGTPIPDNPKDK

[3] = THP-1 cell cytotoxicity, dose response, cytotoxicity control for non-replicating M. tuberculosis project (AID 489025); format: functional
[4] = test system: Streptococcus sp. 'group A'; test: Streptococcus pyogenes SK(-)GAS viability under kanamycin – luminescence, BacTiterGlo, confirmation, counter-screen for streptokinase expression inhibitor project, dose response (AID 1900); format: functional, organism-based
Streptococcus = test: GAS UMAA2166 growth inhibition – luminescence, BacTiterGlo, counter-screen for streptokinase expression inhibitor project, dose response (AID 1915); format: functional, organism-based;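 also: potency for reduction of bacterial viability or growth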
[5] = molecular target: T3, Ubiquitin-conjugating enzyme E2 N (Homo sapiens, UniProt P61088); format: functional
T3 sequence (P61088 whole entry): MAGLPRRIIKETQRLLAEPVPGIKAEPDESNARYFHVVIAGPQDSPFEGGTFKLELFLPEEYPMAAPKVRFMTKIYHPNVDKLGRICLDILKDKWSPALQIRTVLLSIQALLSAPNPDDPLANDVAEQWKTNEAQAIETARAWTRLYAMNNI

[6] = molecular target: T3, Ubiquitin-conjugating enzyme E2 N; format: functional; remark: listed apart in the source
Bcl-2-related protein A1 = molecular target: T4, Bcl-2-related protein A1 (Mus musculus, UniProt Q07440); format: functional;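 also: confirmatory dose–response counterscreen on Bfl-1, used to check hits from a UBC13 polyubiquitin inhibitor campaign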
T4 sequence (Q07440 whole entry): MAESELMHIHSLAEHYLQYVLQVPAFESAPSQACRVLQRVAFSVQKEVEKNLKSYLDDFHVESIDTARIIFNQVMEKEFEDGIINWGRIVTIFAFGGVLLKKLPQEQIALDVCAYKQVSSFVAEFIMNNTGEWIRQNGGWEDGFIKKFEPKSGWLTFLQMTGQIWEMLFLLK

[7] = molecular target: Voltage-dependent T-type calcium channel subunit alpha-1H (Homo sapiens, UniProt O95180); format: functional;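 also: channel activity triggered by adding a high calcium stimulation buffer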
Sequence of Voltage-dependent T-type calcium channel subunit alpha-1H (O95180 whole entry): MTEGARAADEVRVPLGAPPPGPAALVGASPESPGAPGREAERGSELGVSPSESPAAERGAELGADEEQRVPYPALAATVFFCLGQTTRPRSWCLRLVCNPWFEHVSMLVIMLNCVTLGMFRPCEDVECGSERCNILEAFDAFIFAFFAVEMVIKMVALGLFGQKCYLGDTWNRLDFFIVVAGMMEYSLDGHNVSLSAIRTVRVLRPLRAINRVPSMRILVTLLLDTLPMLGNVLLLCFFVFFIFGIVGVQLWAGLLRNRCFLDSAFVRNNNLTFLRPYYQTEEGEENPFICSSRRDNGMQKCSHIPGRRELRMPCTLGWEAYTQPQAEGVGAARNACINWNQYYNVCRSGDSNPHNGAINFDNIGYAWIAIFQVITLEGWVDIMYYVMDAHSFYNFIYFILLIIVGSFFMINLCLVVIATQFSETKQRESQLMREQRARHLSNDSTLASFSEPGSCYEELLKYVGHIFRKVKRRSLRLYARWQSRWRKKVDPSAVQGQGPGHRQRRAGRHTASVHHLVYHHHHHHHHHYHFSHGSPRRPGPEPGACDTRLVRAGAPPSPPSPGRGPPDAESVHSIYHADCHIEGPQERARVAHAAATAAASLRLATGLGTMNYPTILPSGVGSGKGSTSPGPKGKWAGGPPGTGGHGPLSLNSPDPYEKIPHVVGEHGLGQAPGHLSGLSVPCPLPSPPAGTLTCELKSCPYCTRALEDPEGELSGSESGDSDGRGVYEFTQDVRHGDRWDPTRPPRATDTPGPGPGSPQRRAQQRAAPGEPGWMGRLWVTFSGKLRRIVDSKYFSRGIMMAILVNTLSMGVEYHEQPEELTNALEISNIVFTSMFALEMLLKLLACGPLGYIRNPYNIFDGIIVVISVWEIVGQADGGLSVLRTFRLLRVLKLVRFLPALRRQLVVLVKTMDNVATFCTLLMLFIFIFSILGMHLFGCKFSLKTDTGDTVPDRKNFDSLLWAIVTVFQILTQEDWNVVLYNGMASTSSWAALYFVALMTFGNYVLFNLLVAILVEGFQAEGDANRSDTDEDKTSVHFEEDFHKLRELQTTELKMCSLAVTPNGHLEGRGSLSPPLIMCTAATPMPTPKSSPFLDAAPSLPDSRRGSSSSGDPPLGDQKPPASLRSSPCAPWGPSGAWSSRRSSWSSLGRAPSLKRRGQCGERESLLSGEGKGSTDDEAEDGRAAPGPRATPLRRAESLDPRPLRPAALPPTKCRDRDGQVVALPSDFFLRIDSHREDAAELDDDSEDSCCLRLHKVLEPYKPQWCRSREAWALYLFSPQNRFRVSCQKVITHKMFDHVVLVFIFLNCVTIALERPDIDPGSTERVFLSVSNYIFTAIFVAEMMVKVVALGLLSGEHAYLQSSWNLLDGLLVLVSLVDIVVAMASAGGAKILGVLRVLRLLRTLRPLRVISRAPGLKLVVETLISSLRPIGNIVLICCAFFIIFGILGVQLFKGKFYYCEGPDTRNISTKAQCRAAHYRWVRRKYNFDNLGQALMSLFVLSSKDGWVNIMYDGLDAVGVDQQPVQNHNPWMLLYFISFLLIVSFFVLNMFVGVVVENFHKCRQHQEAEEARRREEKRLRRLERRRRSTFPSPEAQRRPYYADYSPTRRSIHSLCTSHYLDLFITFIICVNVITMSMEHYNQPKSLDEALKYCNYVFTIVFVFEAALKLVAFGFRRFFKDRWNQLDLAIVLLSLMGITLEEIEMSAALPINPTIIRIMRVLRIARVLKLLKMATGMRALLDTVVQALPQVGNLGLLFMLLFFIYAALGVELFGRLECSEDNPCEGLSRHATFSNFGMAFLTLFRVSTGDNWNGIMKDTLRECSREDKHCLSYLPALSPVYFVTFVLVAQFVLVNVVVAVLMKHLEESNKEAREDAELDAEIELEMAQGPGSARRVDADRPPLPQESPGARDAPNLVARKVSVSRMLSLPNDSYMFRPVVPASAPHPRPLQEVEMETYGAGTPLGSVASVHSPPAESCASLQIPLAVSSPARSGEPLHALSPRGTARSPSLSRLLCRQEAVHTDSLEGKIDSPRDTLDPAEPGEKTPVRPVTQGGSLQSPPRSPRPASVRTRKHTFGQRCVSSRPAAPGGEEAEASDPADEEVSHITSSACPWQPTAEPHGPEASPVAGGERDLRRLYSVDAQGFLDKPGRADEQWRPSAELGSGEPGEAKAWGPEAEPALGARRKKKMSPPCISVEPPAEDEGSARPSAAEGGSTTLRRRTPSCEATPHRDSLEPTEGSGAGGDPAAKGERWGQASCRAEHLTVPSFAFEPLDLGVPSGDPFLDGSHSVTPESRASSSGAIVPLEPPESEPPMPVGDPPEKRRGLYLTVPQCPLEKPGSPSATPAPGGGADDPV

Cytochrome P450 2C19 = Cytochrome P450 2C19 (Homo sapiens, UniProt P33261); test: Cytochrome panel assay with activity outcomes. Panel member name: p450-cyp2c19 Compounds with AC50 equal or less than 10 uM are considered active; format: functional; conditions: read-out: AC50
Sequence of Cytochrome P450 2C19 (P33261 whole entry): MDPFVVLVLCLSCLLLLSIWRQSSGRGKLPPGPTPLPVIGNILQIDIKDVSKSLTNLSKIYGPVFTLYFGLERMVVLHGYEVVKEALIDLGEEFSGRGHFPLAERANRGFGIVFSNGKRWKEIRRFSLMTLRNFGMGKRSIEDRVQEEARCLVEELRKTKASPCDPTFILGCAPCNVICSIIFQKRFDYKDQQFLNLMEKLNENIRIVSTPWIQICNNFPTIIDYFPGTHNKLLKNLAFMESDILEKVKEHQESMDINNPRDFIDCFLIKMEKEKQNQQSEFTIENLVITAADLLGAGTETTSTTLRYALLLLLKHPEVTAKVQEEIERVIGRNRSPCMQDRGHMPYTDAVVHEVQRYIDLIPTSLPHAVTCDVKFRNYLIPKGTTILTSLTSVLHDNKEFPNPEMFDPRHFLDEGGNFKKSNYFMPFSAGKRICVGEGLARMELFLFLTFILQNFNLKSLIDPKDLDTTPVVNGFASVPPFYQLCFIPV

Cytochrome P450 2C9 = Cytochrome P450 2C9 (Homo sapiens, UniProt P11712)
Sequence of Cytochrome P450 2C9 (P11712 whole entry): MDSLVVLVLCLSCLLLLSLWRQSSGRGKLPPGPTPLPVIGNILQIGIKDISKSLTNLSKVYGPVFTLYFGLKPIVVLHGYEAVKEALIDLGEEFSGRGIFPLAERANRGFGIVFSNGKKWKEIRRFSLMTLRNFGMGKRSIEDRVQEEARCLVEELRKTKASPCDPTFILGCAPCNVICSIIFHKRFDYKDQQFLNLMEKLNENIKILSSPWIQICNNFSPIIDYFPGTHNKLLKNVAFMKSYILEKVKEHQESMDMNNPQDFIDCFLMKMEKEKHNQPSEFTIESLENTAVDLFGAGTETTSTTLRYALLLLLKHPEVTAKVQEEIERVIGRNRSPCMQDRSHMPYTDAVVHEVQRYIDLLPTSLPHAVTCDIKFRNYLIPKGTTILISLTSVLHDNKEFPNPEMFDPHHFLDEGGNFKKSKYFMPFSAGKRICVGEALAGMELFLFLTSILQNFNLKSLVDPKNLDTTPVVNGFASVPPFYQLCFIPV

Aminopeptidase N = molecular target: T5, Aminopeptidase N (Plasmodium falciparum FcB1/Columbia, UniProt O96935); test: malaria alanyl aminopeptidase activity blockers – biochemical, fluorogenic H-Leu-NHMec substrate, 1536-well (AID 1445); design: species or system Plasmodium falciparum 3D7, 3D7
T5 sequence (O96935 whole entry): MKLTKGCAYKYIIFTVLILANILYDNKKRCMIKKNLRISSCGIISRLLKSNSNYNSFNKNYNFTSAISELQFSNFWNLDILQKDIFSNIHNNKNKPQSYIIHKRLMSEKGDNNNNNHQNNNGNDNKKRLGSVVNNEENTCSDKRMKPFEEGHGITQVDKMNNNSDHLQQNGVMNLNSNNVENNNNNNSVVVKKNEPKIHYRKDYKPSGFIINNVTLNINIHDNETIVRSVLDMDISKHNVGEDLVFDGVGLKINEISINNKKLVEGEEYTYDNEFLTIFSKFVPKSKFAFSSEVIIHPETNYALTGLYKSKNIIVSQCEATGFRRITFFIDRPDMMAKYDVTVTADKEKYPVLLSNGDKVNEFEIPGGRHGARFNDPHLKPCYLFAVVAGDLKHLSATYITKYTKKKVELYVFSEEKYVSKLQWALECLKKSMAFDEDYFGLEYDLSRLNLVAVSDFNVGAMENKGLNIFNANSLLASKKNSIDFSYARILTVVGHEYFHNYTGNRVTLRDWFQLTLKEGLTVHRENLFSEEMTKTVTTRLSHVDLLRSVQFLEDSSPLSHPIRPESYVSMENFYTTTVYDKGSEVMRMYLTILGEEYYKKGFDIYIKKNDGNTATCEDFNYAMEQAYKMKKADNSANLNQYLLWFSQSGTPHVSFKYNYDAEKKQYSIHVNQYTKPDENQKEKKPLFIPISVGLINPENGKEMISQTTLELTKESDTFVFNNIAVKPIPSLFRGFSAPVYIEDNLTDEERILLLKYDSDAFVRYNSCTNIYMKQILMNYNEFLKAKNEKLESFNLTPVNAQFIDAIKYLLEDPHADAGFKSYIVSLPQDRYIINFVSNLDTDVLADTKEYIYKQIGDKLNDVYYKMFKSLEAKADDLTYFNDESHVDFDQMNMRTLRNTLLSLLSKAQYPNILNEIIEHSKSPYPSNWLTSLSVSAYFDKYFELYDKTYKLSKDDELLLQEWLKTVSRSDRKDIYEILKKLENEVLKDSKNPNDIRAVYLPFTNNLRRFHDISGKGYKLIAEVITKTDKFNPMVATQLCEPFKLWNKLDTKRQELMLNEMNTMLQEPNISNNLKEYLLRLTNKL

[8] = microbe, parasite or virus in culture; format: functional; conditions: Mycobacterium tuberculosis

Sequence of Cytochrome P450 3A4 (P08684 whole entry): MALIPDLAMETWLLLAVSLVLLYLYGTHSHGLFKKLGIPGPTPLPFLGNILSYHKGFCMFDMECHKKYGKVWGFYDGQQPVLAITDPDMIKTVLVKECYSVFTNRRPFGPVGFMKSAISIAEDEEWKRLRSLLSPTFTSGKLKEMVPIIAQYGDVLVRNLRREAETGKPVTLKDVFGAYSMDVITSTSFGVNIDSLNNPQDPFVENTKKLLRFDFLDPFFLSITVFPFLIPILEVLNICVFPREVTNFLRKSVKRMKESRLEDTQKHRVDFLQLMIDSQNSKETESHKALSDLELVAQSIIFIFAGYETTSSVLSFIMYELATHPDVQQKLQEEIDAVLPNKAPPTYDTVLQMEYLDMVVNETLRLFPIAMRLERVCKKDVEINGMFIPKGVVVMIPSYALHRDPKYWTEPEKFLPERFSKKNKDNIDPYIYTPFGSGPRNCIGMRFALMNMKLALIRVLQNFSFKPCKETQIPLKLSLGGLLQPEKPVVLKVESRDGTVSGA

In the case of CN1CCN(c2ncc3nc(-c4ccc(Cl)cc4)c(=O)n(C4CC4)c3n2)CC1, the AC50 (Cytochrome P450 3A4) is reported as “inconclusive”.
In the case of CN(C)C(CNC(C(=O)Nc1ccc(F)cc1)c1ccccc1)c1ccccc1 (configuration not stated), the EC50 [1] is reported as 0.596 µM (active).
In the case of O=C(N/N=C/c1ccc([N+](=O)[O-])o1)c1ccc(NS(=O)(=O)c2cccs2)cc1, the IC50 (cells) is reported as 7.09 µM (active), the CC50 [2] is reported as 12.9 µM (active) and the EC50 (Streptokinase A) is reported as > 150 µM (not active). For the same compound, the CC50 [3] was 15.9 µM (active), the EC50 [4] was 1.24 µM (active) and the EC50 (Streptococcus) was 6.83 µM (active).
With CC(C)c1ccc(OCC(=O)NNC(=S)NC(=O)C2CC2)cc1 the IC50 [5] was 17.3 µM (active), the IC50 [6] was 6.97 µM (active) and the IC50 (Bcl-2-related protein A1) was > 20 µM (inactive). For the same compound, the EC50 [4] was 0.85 µM (active) and the EC50 (Streptococcus) was 1.33 µM (active).
For O=C(CCCc1c[nH]c2ccccc12)NCc1ccc2c(c1)OCO2, the EC50 [7] was 2.31 µM (active).
With CC(=O)Nc1ccc(C2(c3ccc(NC(C)=O)cc3)C(=O)Nc3ccccc32)cc1 the EC50 [1] was 1.5 µM (active).
In the case of COc1ccc(C(CNc2nc(-c3cccnc3)nc3ccccc23)N(C)C)cc1 (configuration not stated), the EC50 [1] is reported as 0.473 µM (active).
For CC1CCN(S(=O)(=O)c2ccc(NC(=O)Cc3ccccc3)cc2)CC1, the EC50 [7] was 5.25 µM (active).
For CCOc1cccc(OCCCNCCCOC)c1, the AC50 (Cytochrome P450 3A4) was “inconclusive” and the AC50 (Cytochrome P450 2C19) was 28.2 µM (inconclusive).
In the case of CSc1ccc(C(=O)NCC(c2ccco2)N(C)C)cc1[N+](=O)[O-] (configuration not stated), the EC50 [1] is reported as 0.0333 µM (active).
With COc1ccc(C(CNC(=O)c2cccc(NS(=O)(=O)c3ccc(C)c(F)c3)c2)N(C)C)cc1 (configuration not stated) the EC50 [1] was 5.31 µM (active).
With Cn1c(=O)c2c(ncn2Cc2cccc(Cl)c2)n(C)c1=O the IC50 [5] was 10.4 µM (active), the IC50 [6] was 11.2 µM (active) and the IC50 (Bcl-2-related protein A1) was > 20 µM (inactive).
In the case of Cc1ccc(-n2nnnc2-c2cnc(N3CCCC3)nc2C(F)(F)F)cc1, the EC50 [7] is reported as 8.9 µM (active).
In the case of COc1ccccc1OCc1nc(Cc2ccc(Cl)cc2)no1, the EC50 [7] is reported as 7.9 µM (active).
In the case of COCCNC(=O)Cn1cnc2ccc(S(=O)(=O)N3CCC(C)CC3)cc2c1=O, the AC50 (Cytochrome P450 3A4) is reported as “inconclusive” and the AC50 (Cytochrome P450 2C9) is reported as 10 µM (inconclusive).
In the case of Cc1nn(-c2ccccc2)c(Cl)c1/C=C1\SC(=S)NC1=O, the IC50 (Aminopeptidase N) is reported as 46.8 µM (active).
With O=C(NCC1CCN(c2ccc(S(=O)(=O)N3CCOCC3)cc2)CC1)c1ccc(Cl)cc1 the EC50 [7] was 21.2 µM (active), the IC50 (cells) was 31.3 µM (active) and the CC50 [2] was > 20 µM (active). The CC50 [8] was > 40 µM (active) and the CC50 [3] was > 40 µM (active).
In the case of CN(C)C/C=C/C(=O)Nc1cccc(-c2c[nH]c3ncnc(Oc4ccc(NC(=O)CC(=O)Nc5ccc(F)cc5)cc4F)c23)c1, the IC50 [5] is reported as 3.5 µM (active), the IC50 [6] is reported as 2.28 µM (active) and the IC50 (Bcl-2-related protein A1) is reported as > 20 µM (inactive).
For Cc1ccc(-c2oc3ncnc(N)c3c2-c2ccc(C)cc2)cc1, the IC50 [5] was 12.5 µM (active), the IC50 [6] was 4.6 µM (active) and the IC50 (Bcl-2-related protein A1) was > 20 µM (inactive).
With O=C(Cn1nnc2ccccc2c1=O)N[C@@H](Cc1c[nH]c2ccccc12)C(=O)O the IC50 (Aminopeptidase N) was 71.6 µM (active).
For Cc1ccc(CSc2nnc(SCC(=O)N/N=C/c3ccccc3OCC(=O)O)s2)cc1, the IC50 (Aminopeptidase N) was 30.6 µM (active).

From ChEMBL document CHEMBL1201862, “PubChem BioAssay data set” (2004)
